Assay results from article PMC7827809, “Responses of the Pheromone-Binding Protein of the Silk Moth Bombyx mori on a Graphene Biosensor Match Binding Constants in Solution” (Sensors (Basel, Switzerland), 2021).
pKd: −log10 of the molar value. “Also recorded” adds a separate entry of the source. Read-outs that look alike come from different tables or passages of the source.

What was measured:
[1] = target: T1, BmorPBP1 (Bombyx mori pheromone-binding protein PBP1) (Bombyx mori, UniProt P34174); assay: Fluorescence binding assay in solution (1-NPN titration and competitive displacement); conditions: for binding in solution (displacement of 1-NPN), in words: pH 7.4, protein and probe 2 μM
T1 construct: polyhistidine (his-tag, from pET15b) (N); made in house; host or cells: Escherichia coli
T1 sequence (P34174 23-164): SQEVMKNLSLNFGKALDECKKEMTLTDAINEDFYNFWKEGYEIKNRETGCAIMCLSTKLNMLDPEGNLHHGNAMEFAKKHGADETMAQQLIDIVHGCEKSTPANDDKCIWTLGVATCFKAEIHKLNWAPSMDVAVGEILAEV
Procedure: Dissociation constants were measured in solution along with the widely adopted fluorescence binding assay. Spectra were recorded on a PerkinElmer FL 6500 spectrofluorometer at room temperature in a right-angle configuration, with a 1-cm light path quartz cuvette and 5-nm slits for both excitation and emission.
First, the binding of BmorPBP1 to the fluorescent probe N-phenyl-1-naphthylamine (1-NPN) […] of 1-NPN in methanol to final concentrations of 2–16 μM. Excitation wavelength was 337 nm and intensity was recorded at the maximum of the emission peak, 408 nm. The affinities of other ligands were evaluated in competitive binding assays by titrating a solution of the protein and 1-NPN, both at the concentration of 2 μM, with aliquots of 1-mM methanol solutions of each chemical to final concentrations of 2–16 μM. The affinity to 1-NPN was calculated using Prism software. Dissociation constants of competing ligands were evaluated from the corresponding [IC]50 values (the concentration of each ligand halving the initial value of fluorescence), using the equation: Kd = [IC]50/1 + [1-NPN]/KNPN, where [1-NPN] is the concentration of free 1-NPN and KNPN the dissociation constant of the complex Protein/1-NPN.

[2] = target: T2, BmorPBP1 immobilized on reduced graphene oxide field-effect transistor (Bombyx mori, UniProt P34174); assay: BmorPBP1-functionalized rGO-FET biosensor (titration and kinetic runs, Langmuir model); type: binding
T2 construct: polyhistidine (his-tag, from pET15b) (N); made in house; host or cells: Escherichia coli
T2 sequence (P34174 23-164): T1 sequence (P34174 23-164)
Procedure: Reduced graphene oxide field-effect transistors (rGO-FET) were fabricated as previously described with a modified channel width of 30 µm. Electrical properties of the FET devices were tested along with the procedure. For the detection of different odorants, the rGO-based biosensors were functionalized with BmorPBP1. Briefly, for the attachment of the protein to the sensing area, the graphene surface was chemically modified with a bifunctional linker: a 10-μL droplet of a 10-μM 6-(4-(pyren-3-yl) butanamido)-2-(bis(carboxymethyl) amino) hexanoic acid solution was applied overnight to the rGO channel area, rinsed, incubated for 30 min with a 40-mM NiCl2 solution (pH 5.5, adjusted with KOH), rinsed, then incubated with 20 μL of a 10-μM protein solution, followed by a final rinse.
The evaluation of BmorPBP1 binding affinities to various odorants was performed under the following standardized conditions: electrical measurements were taken using a Keithley 4200 semiconductor characterization system. An Ag/AgCl reference electrode (Flex ref, World Precision Instruments) was used to operate the FET device in liquid gate configuration with a constant gate bias (Vg) of −0.6 V and a constant source-drain bias (VDS) of 0.05 V. A flow rate of the odorant solutions in the flow cell was set at 300 µL/min in order to minimize mass transfer limitations of the analytes to the sensor surface. […] Subsequently, the biosensor was titrated with different odorant concentrations (1 μM–4 mM) and the change in source–drain current (ΔIDS) was monitored in real time. Here, the lowest odorant concentration was injected first, and the odorant was allowed to interact with the surface immobilized BmorPBP1 to reach equilibrium, as indicated by a constant source–drain current. This process was repeated with odorant solutions of higher concentrations, until the surface was fully saturated with the target analyte, as indicated by a constant source–drain current (IDS). Surface titration experiments were terminated by a final washing step using pure buffer in order to dissociate the formed PBP1-odorant complex, resulting in almost complete restoration of the initial baseline current. […] For this reason, the drain current response curves were normalized by subtraction to the baseline current. Kinetic parameters, as well as the dissociation constant, Kd, of the above described titration experiments were analyzed using the Langmuir model.
With the electronic transducer directly coupled to a flow cell, one can perform titrations as well as kinetic measurements by online changing of the analyte solution (pure buffer, different analytes at different concentrations) flowing through the cell, while recording the sensor response, i.e., a change in the source–drain current, ΔIDS = IDS − IDSBaseline, in real time.
Earlier studies have given evidence that the underlying molecular mechanism of the recognition and binding of odorant analytes from solution to the surface-immobilized protein, BmorPBP1 in this case, can be well described by the Langmuir adsorption model: the sensor has a fixed number of binding sites on its surface, whose occupancy is measured by Θ, the coverage, ranging from 0 to 1. […] The Langmuir model describes this relation between the coverage, Θ, and the bulk analyte concentration, c0 , by Equation (1):(1) Θ(c0)=ΔIDS(c0)/ΔIDS(c∞)=c0/Kd/(1+c0/Kd)
Alternatively, with the flow cell attached, one can measure the kinetics of the sensor response, ΔIDS, after changing the concentration in the bulk to another value. For an increase of the bulk concentration this can be described in the Langmuir model by Equation (2):(2) Θ(t)=c0/Kd/(1+c0/Kd)·(1−e^−(konc0+koff)t)
Measuring this association of kinetics at different bulk concentrations then allows for the determination of the rate constants, kon and koff. […]

[3] = target: T1, BmorPBP1 (Bombyx mori pheromone-binding protein PBP1); conditions: at concentrations of 7 μM ref 31; cited from earlier work
[4] = immobilized protein, pH 8.0, Langmuir isotherm fit, read-out: Sensor Data Kd, Titration
[5] = immobilized protein, pH 8.0, kinetic runs, averaged results, read-out: Sensor Data Kd, Kinetics
[6] = competitive displacement of 1-NPN, protein and probe 2 μM, 50 mM Tris-Cl pH 7.4, read-out: Solution Data Kd
[7] = Sensor Data Kd, Kinetics, immobilized protein, pH 8.0, kinetic runs, averaged results

| SMILES | pKd [2, 5] | sensor response (ΔIDS), in words ([2]; physiological pH / pH 8) | pKd [1, 6] | binding in solution (displacement of 1-NPN), in words [1] | also measured |
| --- | --- | --- | --- | --- | --- |
| c1ccc(Nc2cccc3ccccc23)cc1 [1-NPN, N-phenyl-1-naphthylamine] | – | – | – | – | pKd [1]: 6.12 |
| COc1nccnc1CC(C)C [2-Isobutyl-3-methoxypyrazine, 2-isobutyl-3-methoxypyrazine] | 2.89 | very weak responses | < 4.00 | poor binding | pKd [2, 4]: 2.55 |
| CCC/C=C\C=C\CCCCCCCCC=O [Bombykal, bombykal] | 5.13 | – | 5.96 | strongest ligand | displacement of the fluorescence probe 1-NPN, in words [3]: efficiently and similarly displace |
| CCC/C=C\C=C\CCCCCCCCCO [Bombykol, bombykol] | 5.09 | – | 6.03 | strongest ligand | pKd ([2]; immobilized protein, pH 4.0, read-out: Sensor Data Kd, Kinetics): < 3.00; pKd [2, 4]: 5.01; sensor response (ΔIDS) at pH 4, in words ([2]; pH 4): failed to bind; also recorded: barely detectable; pKd ([2]; pH 8, single global analysis run of Figure 2A(I)/2C, read-out: kinetically-determined dissociation constant Kd (koff/kon)): 5.33; pKd ([1]; competitive displacement of 1-NPN, pH 4.0, read-out: Solution Data Kd): < 4.00; binding in solution at pH 4, in words ([1]; pH 4): completely abolished; also recorded: failed to bind; displacement of the fluorescence probe 1-NPN, in words [3]: efficiently and similarly displace |
| C=CCc1ccc(O)c(OC)c1 [Eugenol, eugenol] | – | strong signal | 5.55 | appreciable affinity | pKd [2, 7]: 5.09; pKd ([2]; Sensor Data Kd, Titration, immobilized protein, pH 8.0, Langmuir isotherm fit): 5.12 |
| CC(C)=CCC/C(C)=C/CO [Geraniol, geraniol] | – | very weak responses | – | poor binding | pKd [2, 7]: 3.33; pKd [1]: ~4.70 |
| CC(=O)OCCC(C)C [Isoamyl acetate, isoamyl acetate] | < 3.00 | does not give a significant response | ~4.70 | poor binding | sensor response (ΔIDS), in words ([2]; physiological pH / pH 8, listed as isoamyl acetate): very weak responses |
| C=CC(C)(O)CCC=C(C)C (centres unmarked) [Linalool, linalool] | < 3.00 | very weak responses | ~4.40 | poor binding | – |
